According to publication PMC9078765, “Utilizing Network Pharmacology and Molecular Docking Integrated Surface Plasmon Resonance Technology to Investigate the Potential Targets and Mechanisms of Tripterygium wilfordii against Pulmonary Artery Hypertension” (Evidence-based Complementary and Alternative Medicine : eCAM, 2022):

Biological target: T1, CASP3 (Casp3) (Homo sapiens, UniProt P42574)
T1 construct: commercial recombinant protein, captured on Ni-NTA chip (His tag implied)
T1 sequence (P42574 29-175): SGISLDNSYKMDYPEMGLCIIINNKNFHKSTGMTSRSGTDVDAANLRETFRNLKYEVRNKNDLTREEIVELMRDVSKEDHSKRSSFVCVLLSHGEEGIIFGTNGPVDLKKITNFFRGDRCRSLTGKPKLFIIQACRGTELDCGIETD
T1 sequence (P42574 176-277): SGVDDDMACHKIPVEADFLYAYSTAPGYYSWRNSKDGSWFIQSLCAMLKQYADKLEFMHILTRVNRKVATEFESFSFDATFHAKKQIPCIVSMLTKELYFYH
Assay: SPR (OpenSPR, NTA chip, one-to-one model)
Format: binding
Description: SPR (OpenSPR, NTA chip, one-to-one model) on CASP3 (Casp3)

O=c1c(O)c(-c2ccc(O)cc2)oc2cc(O)cc(O)c12 [Kaempferol]
Kd: 7.65 µM
